Several values for one entry are separate records, joined by “and”; a condition that tells them apart may be missing. Equal values may be shown once. Activity calls are given as the source filed them. The calls are words filed in the database; no cut-off is given here.
Test system: Mus musculus
Experiment: Anxiolytic activity in Albino mouse assessed as increase in motor activity by measuring increase in number of square crossing at […], po administered through intragastric tube measured after 40 mins by open field test
Format: functional, organism-based
Settings: not given

Compound | Activity
CCCC(C)c1c(O)nc(SCCN(C)C)[nH]c1=O (stereo unspecified) | Active
CC(C)c1c(O)nc(SCCN2CCCC2)[nH]c1=O.Cl | Active
CCCC(C)c1c(O)nc(SCCN2CCCC2)[nH]c1=O (stereo unspecified) | inactive
CCN(CC)CCSc1nc(O)c(CCSC)c(=O)[nH]1 | Active
CSCCSc1nc(O)c(C(C)C)c(=O)[nH]1 | Active
CCN(CC)CCSc1nc(O)c(CCC(C)C)c(=O)[nH]1 | Active
CSCCc1c(O)nc(SCCN2CCCC2)[nH]c1=O | inactive
CSCCc1c(O)nc(SCCN(C)C)[nH]c1=O | inactive

Test system: Mus musculus
Experiment: Anxiolytic activity in Albino mouse assessed as rapid open arm entry at […], po administered through intragastric tube measured after 40 mins by elevated plus maze test
Format: functional, organism-based
Settings: not given

Compound | Activity
CC(C)CCc1c(O)nc(SCCN2CCCC2)[nH]c1=O | inactive
CCCC(C)c1c(O)nc(SCCN(C)C)[nH]c1=O (stereo unspecified) | Active
CC(C)CCc1c(O)nc(SCCN2CCCCC2)[nH]c1=O | inactive
CC(C)c1c(O)nc(SCCN2CCCCC2)[nH]c1=O | Active
CCN(CC)CCSc1nc(O)c(CCSC)c(=O)[nH]1 | inactive
CSCCSc1nc(O)c(C(C)C)c(=O)[nH]1 | Active
CC(C)c1c(O)nc(SCCN(C)C)nc1O | Active
CC(C)c1c(O)nc(N2CCSCC2)[nH]c1=O | Active
CCN(CC)CCSc1nc(O)c(C(C)C)c(O)n1 | Active
CCCC(C)c1c(O)nc(SCCN(CC)CC)[nH]c1=O.Cl (stereo unspecified) | Active
CCN(CC)CCSc1nc(O)c(CCC(C)C)c(=O)[nH]1 | inactive
CSCCc1c(O)nc(SCCN2CCCC2)[nH]c1=O | Active
CCCC(C)c1c(O)nc(SCCN2CCCCC2)[nH]c1=O (stereo unspecified) | inactive

Test system: Mus musculus
Experiment: Anxiolytic activity in Albino mouse assessed as increase in number of central zone crossing at […], po administered through intragastric tube measured after 40 mins by elevated plus maze test
Format: functional, organism-based
Settings: not given

Compound | Activity
CSCCc1c(O)nc(SCCN2CCCCC2)[nH]c1=O | Active
CCCC(C)c1c(O)nc(SCCN(C)C)[nH]c1=O (stereo unspecified) | Active
CC(C)c1c(O)nc(SCCN2CCCCC2)[nH]c1=O | Active
CCCC(C)c1c(O)nc(SCCN2CCCC2)[nH]c1=O (stereo unspecified) | Active
CSCCSc1nc(O)c(C(C)C)c(=O)[nH]1 | Active
CC(C)c1c(O)nc(SCCN(C)C)nc1O | Active
CC(C)c1c(O)nc(N2CCSCC2)[nH]c1=O | Active
CCCC(C)c1c(O)nc(SCCN(CC)CC)[nH]c1=O.Cl (stereo unspecified) | Active
CSCCc1c(O)nc(SCCN2CCCC2)[nH]c1=O | Active
CSCCc1c(O)nc(SCCN(C)C)[nH]c1=O | Active

Test system: Mus musculus
Experiment: Anxiolytic activity in Albino mouse assessed as increase in number of open arm entries at […], po administered through intragastric tube measured after 40 mins by elevated plus maze test
Format: functional, organism-based
Settings: not given

Compound | Activity
CSCCc1c(O)nc(SCCN2CCCCC2)[nH]c1=O | Active
CCCC(C)c1c(O)nc(SCCN(C)C)[nH]c1=O (stereo unspecified) | Active
CC(C)c1c(O)nc(SCCN2CCCCC2)[nH]c1=O | Active
CCCC(C)c1c(O)nc(SCCN2CCCC2)[nH]c1=O (stereo unspecified) | Active
CSCCSc1nc(O)c(C(C)C)c(=O)[nH]1 | Active
CC(C)c1c(O)nc(SCCN(C)C)nc1O | Active
CC(C)c1c(O)nc(N2CCSCC2)[nH]c1=O | Active
CCCC(C)c1c(O)nc(SCCN(CC)CC)[nH]c1=O.Cl (stereo unspecified) | Active
CSCCc1c(O)nc(SCCN2CCCC2)[nH]c1=O | Active
CSCCc1c(O)nc(SCCN(C)C)[nH]c1=O | Active
CCCC(C)c1c(O)nc(SCCN2CCCCC2)[nH]c1=O (stereo unspecified) | Active

Test system: Mus musculus
Experiment: Anxiolytic activity in Albino mouse assessed as increase in time spent in open arm entries at […], po administered through intragastric tube measured after 40 mins by elevated plus maze test
Format: functional, organism-based
Settings: not given

Compound | Activity
CCCC(C)c1c(O)nc(SCCN(C)C)[nH]c1=O (stereo unspecified) | Active
CC(C)c1c(O)nc(SCCN2CCCCC2)[nH]c1=O | Active
CCCC(C)c1c(O)nc(SCCN2CCCC2)[nH]c1=O (stereo unspecified) | Active
CC(C)c1c(O)nc(SCCN(C)C)nc1O | Active
CC(C)c1c(O)nc(N2CCSCC2)[nH]c1=O | Active
CCN(CC)CCSc1nc(O)c(C(C)C)c(O)n1 | Active
CCCC(C)c1c(O)nc(SCCN(CC)CC)[nH]c1=O.Cl (stereo unspecified) | Active
CSCCc1c(O)nc(SCCN2CCCC2)[nH]c1=O | Active

Test system: Mus musculus
Experiment: Effect on memory formation in Albino mouse assessed as memory of negative experience by measuring dark room entry at […], po administered through intragastric tube measured after 7 days by conditioned avoidance test
Format: functional, organism-based
Settings: time 7.0 day

Compound | Activity
CC(C)CCc1c(O)nc(SCCN2CCCC2)[nH]c1=O | inactive
CSCCc1c(O)nc(SCCN2CCCCC2)[nH]c1=O | inactive
CCCC(C)c1c(O)nc(SCCN(C)C)[nH]c1=O (stereo unspecified) | inactive
CC(C)c1c(O)nc(SCCN2CCCC2)[nH]c1=O.Cl | inactive
CC(C)CCc1c(O)nc(SCCN2CCCCC2)[nH]c1=O | inactive
CC(C)c1c(O)nc(SCCN2CCCCC2)[nH]c1=O | Active
CC(C)CCc1c(O)nc(SCCN(C)C)[nH]c1=O | inactive
CCCC(C)c1c(O)nc(SCCN2CCCC2)[nH]c1=O (stereo unspecified) | inactive
CCN(CC)CCSc1nc(O)c(CCSC)c(=O)[nH]1 | inactive
CSCCSc1nc(O)c(C(C)C)c(=O)[nH]1 | Active
CC(C)c1c(O)nc(SCCN(C)C)nc1O | Active
CC(C)c1c(O)nc(N2CCSCC2)[nH]c1=O | inactive
CCN(CC)CCSc1nc(O)c(C(C)C)c(O)n1 | Active
CCCC(C)c1c(O)nc(SCCN(CC)CC)[nH]c1=O.Cl (stereo unspecified) | inactive
CCN(CC)CCSc1nc(O)c(CCC(C)C)c(=O)[nH]1 | inactive
CSCCc1c(O)nc(SCCN2CCCC2)[nH]c1=O | inactive
CSCCc1c(O)nc(SCCN(C)C)[nH]c1=O | inactive
CCCC(C)c1c(O)nc(SCCN2CCCCC2)[nH]c1=O (stereo unspecified) | inactive

Test system: Mus musculus
Experiment: Nootropic activity in Albino mouse assessed as quick escape from restricting factor in aversive environment at […], po administered through intragastric tube measured after 7 days by conditioned avoidance test
Format: functional, organism-based
Settings: time 7.0 day

Compound | Activity
CSCCc1c(O)nc(SCCN2CCCCC2)[nH]c1=O | inactive
CCCC(C)c1c(O)nc(SCCN(C)C)[nH]c1=O (stereo unspecified) | Active
CC(C)CCc1c(O)nc(SCCN2CCCCC2)[nH]c1=O | Active
CC(C)CCc1c(O)nc(SCCN(C)C)[nH]c1=O | inactive
CCN(CC)CCSc1nc(O)c(CCSC)c(=O)[nH]1 | Active
CSCCSc1nc(O)c(C(C)C)c(=O)[nH]1 | inactive
CC(C)c1c(O)nc(SCCN(C)C)nc1O | inactive
CC(C)c1c(O)nc(N2CCSCC2)[nH]c1=O | Active
CCCC(C)c1c(O)nc(SCCN(CC)CC)[nH]c1=O.Cl (stereo unspecified) | inactive

Test system: Mus musculus
Experiment: Antidepressant activity in Albino mouse with social depression assessed as increase in interaction frequency with partner mouse at […], po administered through intragastric tube measured after 40 mins by social interaction test
Format: functional, organism-based
Settings: not given

Compound | Activity
CCCC(C)c1c(O)nc(SCCN(CC)CC)[nH]c1=O.Cl (stereo unspecified) | Active

Test system: Mus musculus
Experiment: Antidepressant activity in Albino mouse with social depression assessed as increase in time of interaction with partner mouse at […], po administered through intragastric tube measured after 40 mins by social interaction test
Format: functional, organism-based
Settings: not given

Compound | Activity
CCCC(C)c1c(O)nc(SCCN(CC)CC)[nH]c1=O.Cl (stereo unspecified) | Active

Test system: not listed separately
Experiment: Toxicity in po dosed female Albino mouse
Format: organism-based
Settings: female, Albino, in vivo, read-out: LD50

Compound | LD50
CCCC(C)c1c(O)nc(SCCN(CC)CC)[nH]c1=O.Cl (stereo unspecified) | 1840 mg/kg and 5720 µmol/kg

Same assay, conditions: in vivo, po

Compound | LD50
CC(C)c1c(O)nc(SCCN2CCCC2)[nH]c1=O.Cl | 544 mg kg-1 and 1563 umol/Kg

— ChEMBL document CHEMBL5344408, “Pyrimidine thioethers: A novel class of antidepressant agents, endowed with anxiolytic, performance enhancing and nootropic activity” (Eur J Med Chem, 2023)
